Data on 23 compounds can be found in US11964973B2 (priority 2019, dated 2024).

SMILES strings stand for the structures. Read-outs that look alike come from different tables or passages of the source.

One may read the IC50 as the point on the concentration scale where inhibition reaches its midpoint.

In one experiment the target is Human DGKα(9-727) (Homo sapiens (Human), UniProt P23743). Description: biochemical. The following applies: liposome (LIPGLO) assay; Table A; read-out: DGKα LIPGLO IC50.
In a further experiment the target is full length human DGKζ (Homo sapiens (Human), UniProt Q13574). Description: In vitro DGK inhibition assay, Method B (DGKζ LIPGLO, extruded liposomes). Format: biochemical.
Experiment [1] deals with human venous whole blood, CD8 positive population (pERK). Description: DGK human whole blood pERK assay. The settings on record: top concentration 20 μM. It is filed as cell-based. In outline: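 Read-out is the pERK-positive fraction of CD8+ cells measured by flow cytometry. Donor venous blood (heparin) saw compound for one hour at 37° C before a 15-minute anti-CD3 challenge (1 μg/mL final) with cross-linking anti-mouse IgG.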

Setting [2] is: liposome (LIPGLO) assay, read-out: DGKζ LIPGLO IC50.
[3] abbreviates: read-out: DGK HWB (human whole blood pERK), human whole blood, CD8 positive population, anti-CD3 stimulation.
[4] abbreviates: human whole blood, CD8 positive population, anti-CD3 stimulation, read-out: DGK HWB (human whole blood pERK).
Setting [5] is: Homo sapiens, CD8 positive, read-out: DGK HWB (human whole blood pERK), human whole blood, CD8 positive population, anti-CD3 stimulation.
[6] abbreviates: Homo sapiens, CD8 positive, human whole blood, CD8 positive population, anti-CD3 stimulation, read-out: DGK HWB (human whole blood pERK).

full length human DGKζ, sequence (Q13574 whole entry, looked up): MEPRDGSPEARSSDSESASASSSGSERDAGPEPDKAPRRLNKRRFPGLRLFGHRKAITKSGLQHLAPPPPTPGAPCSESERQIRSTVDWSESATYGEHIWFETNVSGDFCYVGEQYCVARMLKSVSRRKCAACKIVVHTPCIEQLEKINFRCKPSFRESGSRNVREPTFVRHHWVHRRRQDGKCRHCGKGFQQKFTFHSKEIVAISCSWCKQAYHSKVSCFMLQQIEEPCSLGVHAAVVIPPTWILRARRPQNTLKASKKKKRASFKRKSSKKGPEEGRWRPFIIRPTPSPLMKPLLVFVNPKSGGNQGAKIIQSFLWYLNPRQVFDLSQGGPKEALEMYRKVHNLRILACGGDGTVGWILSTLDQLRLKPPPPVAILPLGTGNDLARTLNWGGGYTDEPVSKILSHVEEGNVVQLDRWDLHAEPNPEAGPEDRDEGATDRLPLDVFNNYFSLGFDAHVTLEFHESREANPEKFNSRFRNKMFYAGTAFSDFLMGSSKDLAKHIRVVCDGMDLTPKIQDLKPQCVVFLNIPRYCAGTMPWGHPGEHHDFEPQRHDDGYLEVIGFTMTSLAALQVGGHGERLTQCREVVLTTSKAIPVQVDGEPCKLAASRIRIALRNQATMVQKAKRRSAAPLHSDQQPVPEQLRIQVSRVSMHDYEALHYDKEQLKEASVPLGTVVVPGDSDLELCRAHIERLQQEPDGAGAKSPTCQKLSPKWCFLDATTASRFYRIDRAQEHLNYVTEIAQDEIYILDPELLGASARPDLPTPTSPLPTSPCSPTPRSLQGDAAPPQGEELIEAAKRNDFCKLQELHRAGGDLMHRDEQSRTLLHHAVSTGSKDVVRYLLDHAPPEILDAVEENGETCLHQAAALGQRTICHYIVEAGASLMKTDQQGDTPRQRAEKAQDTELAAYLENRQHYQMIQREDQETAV
Human DGKα(9-727), sequence (P23743 whole entry, looked up): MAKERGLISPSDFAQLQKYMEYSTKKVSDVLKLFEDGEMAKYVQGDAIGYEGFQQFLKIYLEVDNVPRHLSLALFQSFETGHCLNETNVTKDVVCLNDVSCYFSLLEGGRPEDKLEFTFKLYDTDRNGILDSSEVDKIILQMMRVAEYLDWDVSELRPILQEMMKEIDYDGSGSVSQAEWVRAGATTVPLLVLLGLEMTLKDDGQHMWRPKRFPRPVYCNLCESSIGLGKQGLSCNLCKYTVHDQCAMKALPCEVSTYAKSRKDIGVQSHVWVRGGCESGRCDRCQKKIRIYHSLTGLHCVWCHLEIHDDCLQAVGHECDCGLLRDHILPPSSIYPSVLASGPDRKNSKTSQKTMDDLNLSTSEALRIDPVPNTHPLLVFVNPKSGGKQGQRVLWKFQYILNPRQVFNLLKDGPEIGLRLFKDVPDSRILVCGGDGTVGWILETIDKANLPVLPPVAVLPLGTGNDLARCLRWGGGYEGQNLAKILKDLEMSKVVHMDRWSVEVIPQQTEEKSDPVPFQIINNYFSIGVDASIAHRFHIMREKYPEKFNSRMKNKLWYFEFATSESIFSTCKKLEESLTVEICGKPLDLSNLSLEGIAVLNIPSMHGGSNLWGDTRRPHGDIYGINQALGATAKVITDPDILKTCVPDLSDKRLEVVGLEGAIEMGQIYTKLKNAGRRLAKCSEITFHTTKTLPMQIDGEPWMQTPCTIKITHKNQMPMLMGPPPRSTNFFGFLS

For `CCO[C@H]1CN(c2nc(=O)n(C)c3ccc(C#N)nc23)CC[C@@H]1Oc1ccccc1` (relative stereo) [Example 402, trans-4-(3-Ethoxy-4-phenoxypiperidin-1-yl)-1-methyl-2-oxo-1,2-dihydropyrido[3,2-d] pyrimidine-6-carbonitrile], the results for the half-maximal inhibitory concentration (IC50) on Human DGKα(9-727) and at full length human DGKζ (setting [2]) were 2.1 µM and 0.9 µM, respectively. Besides, the EC50 in experiment [1] (setting [3]) amounted to 2.8 µM.
Consider `C[C@@H]1CN(c2cc(=O)n(C)c3ccc(C#N)nc23)[C@@H](C)CC1N(C)C(=O)c1ccc(F)cc1` (single isomer, unassigned) [Example 283A], for which the IC50 on Human DGKα(9-727) stood at 26 µM; at full length human DGKζ (setting [2]), 14 µM.
For the compound `CCO[C@@H]1CN(c2nc(=O)n(C)c3ccc(C#N)nc23)CC[C@H]1Oc1ccc(OC(C)C)cn1` (relative stereo) [Example 400, trans-4-(3-Ethoxy-4-((5-isopropoxypyridin-2-yl)oxy)piperidin-1-yl)-1-methyl-2-oxo-1,2-dihydropyrido[3,2-d]pyrimidine-6-carbonitrile], the half-maximal inhibitory concentration (IC50) turned out to be 6.1 µM on Human DGKα(9-727) and 0.7 µM on full length human DGKζ (setting [2]). Besides, the EC50 in experiment [1] (setting [4]) was 9.2 µM.
In the case of `CCO[C@H]1CN(c2cc(=O)n(C)c3ccc(C#N)nc23)CC[C@@H]1Oc1ccc(OC(C)C)nn1` [Example 376, 8-((3S,4S)-3-ethoxy-4-((6-isopropoxypyridazin-3-yl)oxy)piperidin-1-yl)-5-methyl-6-oxo-5,6-dihydro-1,5-naphthyridine-2-carbonitrile], the half-inhibitory concentration (IC50) on full length human DGKζ (setting [2]) was found to be 14 µM. For the same compound, in experiment [1] (setting [5]), the EC50 was determined as 20 µM.
For the compound `C[C@@H]1CN(c2cc(=O)n(C)c3ccc(C#N)nc23)[C@@H](C)CC1N(C)C(=O)c1ccc(F)cc1` (single isomer, unassigned) [Example 283B], the concentration for half-maximal inhibition (IC50) at Human DGKα(9-727) and on full length human DGKζ was 42 µM throughout.
With `CCO[C@H]1CN(c2cc(=O)n(C)c3ccc(C#N)nc23)CC[C@@H]1Oc1ncc(OC(C)C)cn1` [Example 379, 8-((3S,4S)-3-ethoxy-4-((5-isopropoxypyrimidin-2-yl)oxy)piperidin-1-yl)-5-methyl-6-oxo-5,6-dihydro-1,5-naphthyridine-2-carbonitrile], the half-maximal inhibitory concentration (IC50) at Human DGKα(9-727) was 0.58 µM; on full length human DGKζ (setting [2]), 3.1 µM. Also, in experiment [1] (setting [4]), the EC50 is 7 µM.
For the compound `Cn1c(=O)cc(N2CC[C@@H](Oc3cccc(C(F)(F)F)c3)[C@H](OCC(F)(F)F)C2)c2nc(C#N)ccc21` [Example 394, 5-methyl-6-oxo-8-((3R,4R)-3-(2,2,2-trifluoroethoxy)-4-(3-(trifluoromethyl)phenoxy)piperidin-1-yl)-5,6-dihydro-1,5-naphthyridine-2-carbonitrile], on full length human DGKζ (setting [2]), the IC50 was found to be 51 µM. Also, in experiment [1] (setting [3]), the EC50 was found to be 6.2 µM.
In the case of `COCCO[C@@H]1CN(c2cc(=O)n(C)c3ccc(C#N)nc23)CC[C@H]1Oc1cccc(C(F)(F)F)c1` [Example 390, 8-((3R,4R)-3-(2-methoxyethoxy)-4-(3-(trifluoromethyl)phenoxy)piperidin-1-yl)-5-methyl-6-oxo-5,6-dihydro-1,5-naphthyridine-2-carbonitrile], the concentration for half-maximal inhibition (IC50) at full length human DGKζ (setting [2]) was 1.9 µM. Moreover, the EC50 in experiment [1] (setting [3]) amounted to 20 µM.
With `Cn1c(=O)cc(N2CC[C@@H](Oc3cccc(C(F)(F)F)c3)[C@H](OCC(F)(F)F)C2)c2nc(C#N)ccc21` [Example 393, 5-methyl-6-oxo-8-((3R,4R)-3-(2,2,2-trifluoroethoxy)-4-(3-(trifluoromethyl)phenoxy)piperidin-1-yl)-5,6-dihydro-1,5-naphthyridine-2-carbonitrile], the half-inhibitory concentration (IC50) on Human DGKα(9-727) was 1.1 µM; at full length human DGKζ (setting [2]), 0.38 µM. For the same compound, the EC50 in experiment [1] (setting [3]) came to 0.68 µM.
Take `CCO[C@H]1CN(c2nc(=O)n(C)c3ccc(C#N)nc23)CC[C@@H]1Oc1ccc(C(F)(F)F)cc1` [Example 404, 4-((3S,4S)-3-ethoxy-4-(4-(trifluoromethyl)phenoxy)piperidin-1-yl)-1-methyl-2-oxo-1,2-dihydropyrido[3,2-d]pyrimidine-6-carbonitrile]: the IC50 on Human DGKα(9-727) turned out to be 5.6 µM; on full length human DGKζ (setting [2]), 1.2 µM. The EC50 in experiment [1] (setting [5]) was 1.3 µM.
Turning to `CCO[C@H]1CN(c2cc(=O)n(C)c3ccc(C#N)nc23)CC[C@@H]1Oc1cnc(OC(C)C)cn1` [Example 377, 8-((3S,4S)-3-ethoxy-4-((5-isopropoxypyrazin-2-yl)oxy)piperidin-1-yl)-5-methyl-6-oxo-5,6-dihydro-1,5-naphthyridine-2-carbonitrile], the 50% inhibitory concentration (IC50) at Human DGKα(9-727) was determined as 0.13 µM; on full length human DGKζ (setting [2]), 0.075 µM. Further, in experiment [1] (setting [4]), the EC50 is 0.45 µM.
As for `CN(C)CCO[C@@H]1CN(c2cc(=O)n(C)c3ccc(C#N)nc23)CC[C@H]1Oc1cccc(C(F)(F)F)c1` [Example 385, 8-((3R,4R)-3-(2-(dimethylamino)ethoxy)-4-(3-(trifluoromethyl)phenoxy)piperidin-1-yl)-5-methyl-6-oxo-5,6-dihydro-1,5-naphthyridine-2-carbonitrile], the IC50 turned out to be 100 µM at Human DGKα(9-727) and 130 µM at full length human DGKζ (setting [2]).
Regarding `Cn1c(=O)cc(N2CC[C@@H](Oc3cccc(C(F)(F)F)c3)[C@H](OCCN3CCOCC3)C2)c2nc(C#N)ccc21` [Example 392, 5-methyl-8-((3R,4R)-3-(2-morpholinoethoxy)-4-(3-(trifluoromethyl)phenoxy)piperidin-1-yl)-6-oxo-5,6-dihydro-1,5-naphthyridine-2-carbonitrile], the half-maximal inhibitory concentration (IC50) on Human DGKα(9-727) stood at 42 µM; at full length human DGKζ (setting [2]), 24 µM. Besides, the EC50 in experiment [1] (setting [3]) worked out at 13 µM.
With `CCO[C@H]1CN(c2cc(=O)n(C)c3ccc(C#N)nc23)CC[C@@H]1OCc1cccc(C(F)(F)F)c1` (single isomer, unassigned) [Example 382], the values for the IC50 at Human DGKα(9-727) and at full length human DGKζ (setting [2]) were 17 µM and 130 µM, respectively. Besides, the EC50 in experiment [1] (setting [6]) turned out to be 20 µM.
For `CCO[C@H]1CN(c2nc(=O)n(C)c3ccc(C#N)nc23)CC[C@@H]1Oc1ccc(C(F)(F)F)cc1` [Example 405, 4-((3S,4S)-3-ethoxy-4-(4-(trifluoromethyl)phenoxy)piperidin-1-yl)-1-methyl-2-oxo-1,2-dihydropyrido[3,2-d]pyrimidine-6-carbonitrile], the half-inhibitory concentration (IC50) at full length human DGKζ (setting [2]) came to 14 µM.
With `CCO[C@H]1CN(c2cc(=O)n(C)c3ccc(C#N)nc23)CC[C@@H]1Oc1cnc(OC(C)C)cn1` [Example 378, 8-((3S,4S)-3-ethoxy-4-((5-isopropoxypyrazin-2-yl)oxy)piperidin-1-yl)-5-methyl-6-oxo-5,6-dihydro-1,5-naphthyridine-2-carbonitrile], the half-maximal inhibitory concentration (IC50) is 7.7 µM on Human DGKα(9-727) and 5.2 µM at full length human DGKζ (setting [2]). Besides, the EC50 in experiment [1] (setting [4]) is 10 µM.
On to `CCO[C@H]1CN(c2cc(=O)n(C)c3ccc(C#N)nc23)CC[C@@H]1Oc1ccc(OC(C)C)cn1` (relative stereo) [Example 398, trans-8-(4-((5-Isopropoxypyridin-2-yl)oxy)-3-ethoxypiperidin-1-yl)-5-methyl-6-oxo-5,6-dihydro-1,5-naphthyridine-2-carbonitrile], for which, at full length human DGKζ (setting [2]), the IC50 turned out to be 1.2 µM. Besides, the EC50 in experiment [1] (setting [4]) was determined as 2.8 µM.
On to `Cn1c(=O)cc(N2CC[C@@H](Oc3cccc(C(F)(F)F)c3)[C@H](OCC3CC3)C2)c2nc(C#N)ccc21` [Example 387, 8-((3R,4R)-3-(cyclopropylmethoxy)-4-(3-(trifluoromethyl)phenoxy)piperidin-1-yl)-5-methyl-6-oxo-5,6-dihydro-1,5-naphthyridine-2-carbonitrile], for which the IC50 amounted to 2.1 µM on Human DGKα(9-727) and 0.097 µM on full length human DGKζ (setting [2]). Also, in experiment [1] (setting [4]), the EC50 is 0.65 µM.
Regarding `CN(C)CCO[C@@H]1CN(c2cc(=O)n(C)c3ccc(C#N)nc23)CC[C@H]1Oc1cccc(C(F)(F)F)c1` [Example 386, 8-((3R,4R)-3-(2-(dimethylamino)ethoxy)-4-(3-(trifluoromethyl)phenoxy)piperidin-1-yl)-5-methyl-6-oxo-5,6-dihydro-1,5-naphthyridine-2-carbonitrile], the IC50 at Human DGKα(9-727) came out at 130 µM; on full length human DGKζ (setting [2]) it was 42 µM. Also, the EC50 in experiment [1] (setting [6]) was 20 µM.
For the compound `CCO[C@@H]1CN(c2nc(=O)n(C)c3ccc(C#N)nc23)CC[C@H]1Oc1ccc(OC(C)C)cn1` (relative stereo) [Example 401, trans-4-(3-Ethoxy-4-((5-isopropoxypyridin-2-yl)oxy)piperidin-1-yl)-1-methyl-2-oxo-1,2-dihydropyrido[3,2-d]pyrimidine-6-carbonitrile], the results for the IC50 on Human DGKα(9-727) and at full length human DGKζ (setting [2]) were 0.83 µM and 0.39 µM, respectively. The EC50 in experiment [1] (setting [4]) was 2.3 µM.
Turning to `COCCO[C@@H]1CN(c2cc(=O)n(C)c3ccc(C#N)nc23)CC[C@H]1Oc1cccc(C(F)(F)F)c1` [Example 389, 8-((3R,4R)-3-(2-methoxyethoxy)-4-(3-(trifluoromethyl)phenoxy)piperidin-1-yl)-5-methyl-6-oxo-5,6-dihydro-1,5-naphthyridine-2-carbonitrile], the IC50 came out at 2.5 µM at Human DGKα(9-727) and 0.27 µM on full length human DGKζ (setting [2]). Further, the EC50 in experiment [1] (setting [3]) was determined as 3 µM.
Turning to `CCO[C@H]1CN(c2cc(=O)n(C)c3ccc(C#N)nc23)CC[C@@H]1Oc1ncc(OC(C)C)cn1` [Example 380, 8-((3S,4S)-3-ethoxy-4-((5-isopropoxypyrimidin-2-yl)oxy)piperidin-1-yl)-5-methyl-6-oxo-5,6-dihydro-1,5-naphthyridine-2-carbonitrile], the concentration for half-maximal inhibition (IC50) on Human DGKα(9-727) came to 1.3 µM; on full length human DGKζ (setting [2]), 14 µM. Moreover, the EC50 in experiment [1] (setting [4]) amounted to 20 µM.
On to `CC(C)O[C@@H]1CN(c2cc(=O)n(C)c3ccc(C#N)nc23)CC[C@H]1Oc1cccc(C(F)(F)F)c1` (relative stereo) [Example 396, trans-8-(3-Isopropoxy-4-(3-(trifluoromethyl)phenoxy)piperidin-1-yl)-5-methyl-6-oxo-5,6-dihydro-1,5-naphthyridine-2-carbonitrile], for which the IC50 is 38 µM at Human DGKα(9-727) and 3.6 µM at full length human DGKζ (setting [2]). Also, the EC50 in experiment [1] (setting [4]) is 14 µM.
